In ChEMBL document CHEMBL1201862, “PubChem BioAssay data set” (2004):
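48-hour exposure; five concentrations; linearly interpolated endpoints. GI50 = concentration required for 50% inhibition of growth.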 Active and inactive are the calls of the source. No stated cut-off is given here; in the data, active = GI50 up to about 1.1 µM and inactive = higher.

Experiments:
Test in all cases: growth of human tumour cells (NCI), 48 h
IGROV-1 = test system: IGROV-1
COLO 205 = test system: COLO 205
HOP-62 = test system: HOP-62
KM12 = test system: KM12
SK-MEL-5 = test system: SK-MEL-5
NCI-H23 = test system: NCI-H23
SNB-19 = test system: SNB-19
Hs-578T = test system: Hs-578T
NCI-H460 = test system: NCI-H460
T47D = test system: T47D
SNB-75 = test system: SNB-75
ACHN = test system: ACHN
HCT-116 = test system: HCT-116
UACC-62 = test system: UACC-62
HCT-15 = test system: HCT-15
UACC-257 = test system: UACC-257
SK-OV-3 = test system: SK-OV-3
MOLT-4 = test system: MOLT-4
UO-31 = test system: UO-31

| Compound | GI50 (IGROV-1) | GI50 (COLO 205) | GI50 (HOP-62) | GI50 (KM12) | GI50 (SK-MEL-5) | GI50 (NCI-H23) | GI50 (SNB-19) | GI50 (Hs-578T) | GI50 (NCI-H460) | GI50 (T47D) | GI50 (SNB-75) | GI50 (ACHN) | GI50 (HCT-116) | GI50 (UACC-62) | GI50 (HCT-15) [µM] | GI50 (UACC-257) | GI50 (SK-OV-3) | GI50 (MOLT-4) | GI50 (UO-31) |
| --- | --- | --- | --- | --- | --- | --- | --- | --- | --- | --- | --- | --- | --- | --- | --- | --- | --- | --- | --- |
| c1nc2nc[nH]c(SSc3[nH]cnc4ncnc3-4)c-2n1 | > 22.3 µM (inactive) | 0.653 µM (active) | 0.116 µM (active) | 1.06 µM (active) | 4.83 µM (inactive) | 0.292 µM (active) | 47.4 µM (inactive) | 5.89 µM (inactive) | 2.65 µM (inactive) | 2.64 µM (inactive) | 0.463 µM (active) | 3.21 µM (inactive) | 0.41 µM (active) | < 0.01 µM (active) | 0.925 | 2.63 µM (inactive) |  |  |  |
| Cc1ccc(C(=O)C2CC3(CCC2(O)c2ccc(C)cc2)CC(=O)Nc2ccccc2C3=O)cc1 (stereo not drawn) | > 100 µM (inactive) | > 100 µM (inactive) | 99.3 µM (inactive) |  | 6.89 µM (inactive) | > 100 µM (inactive) | 51.6 µM (inactive) | 41.1 µM (inactive) | 40 µM (inactive) | 8.57 µM (inactive) | 13.5 µM (inactive) |  | 62.7 µM (inactive) | > 100 µM (inactive) | > 100 | > 100 µM (inactive) | > 100 µM (inactive) | 4.91 µM (inactive) | > 100 µM (inactive) |
| COc1nc(-c2cn(S(=O)(=O)c3ccc(C)cc3)c3ccc(Br)cc23)cc(C(F)(F)F)c1C#N | 28.4 µM (inactive) | > 100 µM (inactive) |  | > 100 µM (inactive) | 77.6 µM (inactive) | 18.8 µM (inactive) | 25.9 µM (inactive) |  | > 100 µM (inactive) | 19.5 µM (inactive) | 23.3 µM (inactive) | 29.1 µM (inactive) |  | 38.8 µM (inactive) | 41.4 | 53.1 µM (inactive) | 21 µM (inactive) | 31.3 µM (inactive) | 55 µM (inactive) |
| CC(=O)Nc1ccc(C(=O)NN2C(=O)C(Cl)C2/C=C/c2ccccc2)cc1 (stereo not drawn) | > 100 µM (inactive) | > 100 µM (inactive) | > 100 µM (inactive) | > 100 µM (inactive) | > 100 µM (inactive) | > 100 µM (inactive) | > 100 µM (inactive) |  | > 100 µM (inactive) |  | > 100 µM (inactive) | > 100 µM (inactive) | > 100 µM (inactive) | > 100 µM (inactive) |  | > 100 µM (inactive) | > 100 µM (inactive) | > 100 µM (inactive) | > 100 µM (inactive) |
| CC(C)(C)[Si](C)(C)OCCOCn1cc(F)c(=O)[nH]c1=O | > 100 µM (inactive) | > 100 µM (inactive) | > 100 µM (inactive) | > 100 µM (inactive) | > 100 µM (inactive) | > 100 µM (inactive) | > 100 µM (inactive) | > 100 µM (inactive) | > 100 µM (inactive) | 69 µM (inactive) | > 100 µM (inactive) | > 100 µM (inactive) | > 100 µM (inactive) | > 100 µM (inactive) | > 100 | > 100 µM (inactive) | > 100 µM (inactive) | > 100 µM (inactive) | > 100 µM (inactive) |
| COc1ccc(N2C(=O)CSC2c2c[nH]c3ccccc23)cc1 (stereo not drawn) | > 100 µM (inactive) | 92.7 µM (inactive) | > 100 µM (inactive) | 28.4 µM (inactive) | 88.5 µM (inactive) | 69.7 µM (inactive) | > 100 µM (inactive) |  | 32.4 µM (inactive) | > 100 µM (inactive) | > 100 µM (inactive) |  | 59.2 µM (inactive) | 44.9 µM (inactive) | 70.3 | > 100 µM (inactive) | > 100 µM (inactive) | 33 µM (inactive) | 49.8 µM (inactive) |
| S=C(N/N=C(/c1ccccc1)c1ccccn1)Nc1cccc(Cl)c1 |  | < 0.0315 µM (active) | 1.27 µM (inactive) | 0.414 µM (active) | 0.185 µM (active) | 1.04 µM (active) | 3.01 µM (inactive) | 1.52 µM (inactive) | 0.316 µM (active) | 0.00369 µM (active) | 0.0569 µM (active) | 0.225 µM (active) | < 0.0189 µM (active) | 0.201 µM (active) |  | < 0.0475 µM (active) | 0.215 µM (active) | < 0.0297 µM (active) | 0.566 µM (active) |
| Nc1ncnc2c1sc1nc3ccccc3n12 | 13.4 µM (inactive) | > 100 µM (inactive) | > 70.1 µM (inactive) | > 45 µM (inactive) | 52 µM (inactive) | > 100 µM (inactive) | > 100 µM (inactive) | 12.2 µM (inactive) | 53.1 µM (inactive) | > 100 µM (inactive) |  | 57.7 µM (inactive) |  | 31 µM (inactive) | > 100 | > 100 µM (inactive) | 12.5 µM (inactive) | 11.8 µM (inactive) | > 77.8 µM (inactive) |
| Cc1[nH]c(=O)nc(S)c1C(=O)NC1C2CCCCC2NC2CCCCC21 (stereo not drawn) | 15.7 µM (inactive) | 20.5 µM (inactive) | 17.3 µM (inactive) | 16.1 µM (inactive) | 18.9 µM (inactive) | 14.4 µM (inactive) | 15.6 µM (inactive) | 23.4 µM (inactive) | 14.4 µM (inactive) | 7.59 µM (inactive) | 16.7 µM (inactive) |  | 15.1 µM (inactive) | 4.09 µM (inactive) | 10.9 | 16.3 µM (inactive) | > 10 µM (inactive) | 14.3 µM (inactive) | 13.8 µM (inactive) |
| O=C1CC(=O)N(c2ccccc2)N1/C(=C/c1ccccc1)c1ccccc1 | 15.8 µM (inactive) | 19.8 µM (inactive) | 18.5 µM (inactive) | 25.6 µM (inactive) | 14.5 µM (inactive) | 23.2 µM (inactive) | 19.6 µM (inactive) | 17.3 µM (inactive) | 19.8 µM (inactive) | 21.3 µM (inactive) | 22 µM (inactive) | 25.8 µM (inactive) | 16 µM (inactive) | 16.3 µM (inactive) |  | 24.8 µM (inactive) | 25.6 µM (inactive) | 1.58 µM (inactive) | 15.7 µM (inactive) |
| CN1C(=O)[C@@H]2[C@@H]3c4ccccc4N[C@@H]3c3[nH]c4ccccc4c3[C@@H]2C1=O | 0.0502 µM (active) | 17 µM (inactive) | 19.5 µM (inactive) |  | 12.5 µM (inactive) | 13.9 µM (inactive) | 29.6 µM (inactive) | 28.3 µM (inactive) | 15.3 µM (inactive) |  | 31.6 µM (inactive) | 18.5 µM (inactive) | 29.4 µM (inactive) | 14.5 µM (inactive) | 18.8 | 17.9 µM (inactive) | 26.1 µM (inactive) | 19.1 µM (inactive) | 14.7 µM (inactive) |
| Nc1c(Br)cc2c(c1Br)Cc1cc(Br)ccc1-2 |  | > 100 µM (inactive) |  | > 100 µM (inactive) | > 100 µM (inactive) | > 100 µM (inactive) | > 100 µM (inactive) | > 100 µM (inactive) | > 100 µM (inactive) | > 100 µM (inactive) | > 100 µM (inactive) | > 100 µM (inactive) | > 100 µM (inactive) |  | > 100 | > 100 µM (inactive) | > 100 µM (inactive) | > 100 µM (inactive) | > 100 µM (inactive) |
| CCSc1nc(N)c2c(-c3ccccc3)c3c(nc2n1)CCC3 | > 100 µM (inactive) | > 100 µM (inactive) | > 100 µM (inactive) | > 100 µM (inactive) | > 100 µM (inactive) | > 100 µM (inactive) | > 100 µM (inactive) | > 100 µM (inactive) | > 100 µM (inactive) | > 100 µM (inactive) | > 100 µM (inactive) | > 100 µM (inactive) | > 100 µM (inactive) | > 100 µM (inactive) | > 100 | > 100 µM (inactive) | > 100 µM (inactive) | > 100 µM (inactive) | 2.59 µM (inactive) |
| COc1ccc(-c2c(C#N)c(N)nc3c2CCS(=O)(=O)c2ccccc2-3)cc1 | > 100 µM (inactive) | > 100 µM (inactive) |  | > 100 µM (inactive) | > 100 µM (inactive) | > 100 µM (inactive) | > 100 µM (inactive) | 37.7 µM (inactive) | > 100 µM (inactive) | > 100 µM (inactive) | 38.5 µM (inactive) | > 100 µM (inactive) | > 100 µM (inactive) | > 100 µM (inactive) | > 100 | > 100 µM (inactive) |  |  | > 100 µM (inactive) |
| COc1ccccc1NC(=O)/C(Cc1nc2ccc([N+](=O)[O-])cc2nc1O)=N\NC(=O)C[N+](C)(C)C | 55.3 µM (inactive) | 37.2 µM (inactive) | > 100 µM (inactive) | 31.8 µM (inactive) | 26.4 µM (inactive) | > 100 µM (inactive) | > 100 µM (inactive) | > 100 µM (inactive) | 38.1 µM (inactive) |  | > 100 µM (inactive) | > 100 µM (inactive) | 46.8 µM (inactive) | 62.5 µM (inactive) | 40.7 | > 100 µM (inactive) | > 100 µM (inactive) | 16.1 µM (inactive) | 25.7 µM (inactive) |
| O=C(N/N=C\C(F)(F)F)c1ccncc1 | 35.2 µM (inactive) | 6.14 µM (inactive) | 24.7 µM (inactive) | 8.09 µM (inactive) | 20.5 µM (inactive) | 8.36 µM (inactive) | 71.9 µM (inactive) | 38.6 µM (inactive) | 19.9 µM (inactive) |  | 32.2 µM (inactive) |  |  | 37.2 µM (inactive) | 26.9 | 49.3 µM (inactive) | 31.6 µM (inactive) | 21.4 µM (inactive) | 83.6 µM (inactive) |
